In PMC12527922, “Cocaine chemogenetics blunts drug-seeking by synthetic physiology” (Nature, 2025):
Several values for one entry are separate records, joined by “and”; a condition that tells them apart may be missing. Identical values can stand only once.

Tested on: GRABDA dopamine sensor, nucleus accumbens shell
Test: Fibre photometry of dopamine (GRABDA) after cocaine administration
Assay type: in vivo, rat
Conditions: for GRABDA dopamine signal, Mean: ED Fig. 9d; for GRABDA response versus saline: cocaine 5, 10, 20 mg per kg i.p.
Description: Male Sprague–Dawley rats were anaesthetized with isoflurane (1.5–2%) and then placed onto a stereotaxic frame (Kopf) and injected with AAV5-Syn::coca-5HT3-IRES-mCherry (0.5 µl, 4.95 × 10^12 vg per ml) into the LHb (AP, −3.8 mm relative to bregma; ML, ±0.7 mm; DV, −5.25 mm, at a 10° angle) (n = 5) or underwent sham surgery (n = 6). Rats were also implanted with an optic fibre (400 µm core, 0.50 NA) attached to a 2.5 mm diameter ferrule (Thorlabs) directed to the medial shell of the nucleus accumbens (AP, +1.7 mm relative to bregma; ML, ±0.9 mm; DV, −7.0 mm). To ensure that AAV9-Syn::GRABDA1m was transduced at the direct vicinity of the fibre tip, we coated the fibre with the AAV (0.4 µl, 5 × 10^12 vg per ml) using a silk fibroin film before its implantation as previously described.
For fibre photometry, dopamine (GRABDA) dynamics were measured using a Tucker-Davis Technologies (TDT) system in anaesthetized rats. […] Data were acquired at 1 kHz. On the testing day, rats were anaesthetized (isoflurane: induction, 5%; maintenance, 3%) and attached to a photometry patch cord (400 μm core, 0.50 NA). GRABDA signals were then collected for 5 min, followed by a saline i.p. injection, and additional GRABDA signal measurement for 20 min. Cocaine was then injected i.p. at 20, 10 or 5 mg per kg, and the GRABDA signal was measured for an additional 20 min. Each rat was tested three times with cocaine doses administered in randomized order. Fibre photometry analyses were performed using scripts in MATLAB R2023b (MathWorks) based on codes from the Barker (https://github.com/djamesbarker)[64] and Lerner (https://github.com/talialerner/)[65] laboratories. […] The GRABDA signal was normalized to values at 1 min before saline or cocaine injection and shown as the average z-scored activity per min. […] Fibre photometry data are represented as mean ± s.e.m. Statistical analyses were performed using Prism 10 (GraphPad).

[1] = ED Fig. 9a, Cocaine 10 mg/kg, Time 5
[2] = ED Fig. 9a, Cocaine 10 mg/kg, Time 6
[3] = ED Fig. 9a, Cocaine 10 mg/kg, Time 7
[4] = ED Fig. 9a, Cocaine 10 mg/kg, Time 8
[5] = ED Fig. 9a, Cocaine 10 mg/kg, Time 9
[6] = ED Fig. 9a, Cocaine 10 mg/kg, Time 10
[7] = ED Fig. 9a, Cocaine 10 mg/kg, Time 11
[8] = ED Fig. 9a, Cocaine 10 mg/kg, Time 12
[9] = ED Fig. 9a, Cocaine 10 mg/kg, Time 13
[10] = ED Fig. 9a, Cocaine 10 mg/kg, Time 14
[11] = ED Fig. 9a, Cocaine 10 mg/kg, Time 15
[12] = ED Fig. 9a, Cocaine 10 mg/kg, Time 16
[13] = ED Fig. 9a, Cocaine 10 mg/kg, Time 17
[14] = ED Fig. 9a, Cocaine 10 mg/kg, Time 18
[15] = ED Fig. 9a, Cocaine 10 mg/kg, Time 19
[16] = ED Fig. 9a, Cocaine 10 mg/kg, Time -1

For `COC(=O)[C@H]1[C@@H](OC(=O)c2ccccc2)C[C@@H]2CC[C@H]1N2C` [cocaine], which “GRABDA dopamine signal, single rats” value (ED Fig. 9a, Cocaine 10 mg/kg, Time 4) is on record?
The value was 1.256 and 1.397 and 0.09982 and 0.6394 and 1.0999 and 0.05112.

And the “GRABDA dopamine signal, AVG” value [1]?
Its value is 1.193.

And the “GRABDA dopamine signal, single rats” value [1]?
Its value is 1.343 and 2.078 and 0.3984 and 0.8156 and 2.4787 and 0.0445.

And the “GRABDA dopamine signal, AVG” value [2]?
Its value is 1.422.

And the “GRABDA dopamine signal, single rats” value [2]?
The value was 1.711 and 2.382 and 0.7218 and 1.242 and 2.331 and 0.1429.

And the “GRABDA dopamine signal, AVG” value [3]?
Its value is 1.596.

And the “GRABDA dopamine signal, single rats” value [3]?
The value was 1.781 and 2.522 and 1.248 and 1.497 and 2.407 and 0.1218.

And the “GRABDA dopamine signal, AVG” value [4]?
Its value is 1.699.

What about the “GRABDA dopamine signal, single rats” value [4] of the same compound?
The value was 2.125 and 2.686 and 1.2639 and 1.736 and 2.313 and 0.06957.

What about the “GRABDA dopamine signal, AVG” value [5] of the same compound?
Its value is 1.935.

And the “GRABDA dopamine signal, single rats” value [5]?
Its value is 2.098 and 2.8744 and 1.781 and 1.888 and 2.927 and 0.03932.

And the “GRABDA dopamine signal, AVG” value [6]?
The value was 2.176.

And the “GRABDA dopamine signal, single rats” value [6]?
Its value is 2.19 and 2.83 and 2.002 and 2.24 and 3.737 and 0.0549.

And the “GRABDA dopamine signal, AVG” value [7]?
The value was 2.088.

What about the “GRABDA dopamine signal, single rats” value [7] of the same compound?
Its value is 2.259 and 2.779 and 2.031 and 2.445 and 2.889 and 0.1232.

What about the “GRABDA dopamine signal, AVG” value [8] of the same compound?
Its value is 1.996.

And the “GRABDA dopamine signal, single rats” value [8]?
Its value is 2.418 and 2.64 and 2.12 and 2.366 and 2.425 and 0.00481.

What about the “GRABDA dopamine signal, AVG” value [9] of the same compound?
The value was 2.15.

What about the “GRABDA dopamine signal, single rats” value [9] of the same compound?
Its value is 2.55 and 2.491 and 2.555 and 2.51 and 2.634 and 0.161.

And the “GRABDA dopamine signal, AVG” value [10]?
Its value is 2.1808.

And the “GRABDA dopamine signal, single rats” value [10]?
The value was 2.759 and 2.573 and 2.372 and 2.6549 and 2.629 and 0.09693.

What about the “GRABDA dopamine signal, AVG” value [11] of the same compound?
Its value is 2.145.

What about the “GRABDA dopamine signal, single rats” value [11] of the same compound?
Its value is 2.608 and 2.303 and 2.535 and 2.6631 and 2.692 and 0.06715.

What about the “GRABDA dopamine signal, AVG” value [12] of the same compound?
The value was 2.005.

And the “GRABDA dopamine signal, single rats” value [12]?
Its value is 2.483 and 2.2 and 2.525 and 2.513 and 2.213 and 0.09632.

And the “GRABDA dopamine signal, AVG” value [13]?
The value was 2.106.

What about the “GRABDA dopamine signal, single rats” value [13] of the same compound?
Its value is 2.751 and 1.972 and 2.4136 and 2.994 and 2.448 and 0.05475.

And the “GRABDA dopamine signal, AVG” value [14]?
The value was 1.975.

What about the “GRABDA dopamine signal, single rats” value [14] of the same compound?
Its value is 2.385 and 1.7832 and 2.833 and 2.375 and 2.433 and 0.03971.

And the “GRABDA dopamine signal, AVG” value [15]?
Its value is 1.865.

What about the “GRABDA dopamine signal, single rats” value [15] of the same compound?
Its value is 2.396 and 1.613 and 2.323 and 2.558 and 2.225 and 0.07693.

What about the “GRABDA dopamine signal, AVG” value [16] of the same compound?
The value was 0.04715.

What about the “GRABDA dopamine signal, single rats” value [16] of the same compound?
Its value is 0.0433 and 0.0669 and 0.08953 and 0.0687.

What about the “GRABDA dopamine signal, AVG” value (ED Fig. 9c, Cocaine 20 mg/kg, Time 0) of the same compound?
The value was 0.0619.

And the “GRABDA dopamine signal, AVG” value (ED Fig. 9c, Cocaine 20 mg/kg, Time 1)?
Its value is 0.07229.

What about the “GRABDA dopamine signal, AVG” value (ED Fig. 9c, Cocaine 20 mg/kg, Time 2) of the same compound?
Its value is 0.3247.

What about the “GRABDA dopamine signal, AVG” value (ED Fig. 9c, Cocaine 20 mg/kg, Time 3) of the same compound?
The value was 0.7746.

What about the “GRABDA dopamine signal, AVG” value (ED Fig. 9c, Cocaine 20 mg/kg, Time 4) of the same compound?
The value was 1.201.

And the “GRABDA dopamine signal, AVG” value (ED Fig. 9c, Cocaine 20 mg/kg, Time 5)?
The value was 1.589.

What about the “GRABDA dopamine signal, AVG” value (ED Fig. 9c, Cocaine 20 mg/kg, Time 6) of the same compound?
The value was 1.681.

What about the “GRABDA dopamine signal, AVG” value (ED Fig. 9c, Cocaine 20 mg/kg, Time 7) of the same compound?
The value was 1.863.

What about the “GRABDA dopamine signal, AVG” value (ED Fig. 9c, Cocaine 20 mg/kg, Time 8) of the same compound?
Its value is 1.725.

And the “GRABDA dopamine signal, AVG” value (ED Fig. 9c, Cocaine 20 mg/kg, Time 9)?
The value was 1.85.

What about the “GRABDA dopamine signal, AVG” value (ED Fig. 9c, Cocaine 20 mg/kg, Time 10) of the same compound?
Its value is 1.747.

What about the “GRABDA dopamine signal, AVG” value (ED Fig. 9c, Cocaine 20 mg/kg, Time 11) of the same compound?
Its value is 1.666.

And the “GRABDA dopamine signal, AVG” value (ED Fig. 9c, Cocaine 20 mg/kg, Time 12)?
The value was 1.553.

What about the “GRABDA dopamine signal, AVG” value (ED Fig. 9c, Cocaine 20 mg/kg, Time 13) of the same compound?
The value was 1.4.

And the “GRABDA dopamine signal, AVG” value (ED Fig. 9c, Cocaine 20 mg/kg, Time 14)?
Its value is 1.393.

And the “GRABDA dopamine signal, AVG” value (ED Fig. 9c, Cocaine 20 mg/kg, Time 15)?
Its value is 1.467.

And the “GRABDA dopamine signal, AVG” value (ED Fig. 9c, Cocaine 20 mg/kg, Time 16)?
The value was 1.282.

What about the “GRABDA dopamine signal, AVG” value (ED Fig. 9c, Cocaine 20 mg/kg, Time 17) of the same compound?
The value was 1.1.

What about the “GRABDA dopamine signal, AVG” value (ED Fig. 9c, Cocaine 20 mg/kg, Time 18) of the same compound?
The value was 1.175.

What about the “GRABDA dopamine signal, AVG” value (ED Fig. 9c, Cocaine 20 mg/kg, Time 19) of the same compound?
Its value is 1.238.

And the “GRABDA dopamine signal, AVG” value (ED Fig. 9c, Cocaine 20 mg/kg, Time -1)?
Its value is -0.01168.

What about the “GRABDA dopamine signal, Mean” value (Cocaine 20 mg/kg, Time 0) of the same compound?
Its value is -0.2698.

And the “GRABDA dopamine signal, Mean” value (Cocaine 20 mg/kg, Time 1)?
The value was -0.1247.

And the “GRABDA dopamine signal, Mean” value (Cocaine 20 mg/kg, Time 2)?
The value was 0.09345.

What about the “GRABDA dopamine signal, Mean” value (Cocaine 20 mg/kg, Time 3) of the same compound?
Its value is 0.3137.

And the “GRABDA dopamine signal, Mean” value (Cocaine 20 mg/kg, Time 4)?
The value was 0.5516.

What about the “GRABDA dopamine signal, Mean” value (Cocaine 20 mg/kg, Time 5) of the same compound?
The value was 0.5577.

What about the “GRABDA dopamine signal, Mean” value (Cocaine 20 mg/kg, Time 6) of the same compound?
The value was 0.3392.

What about the “GRABDA dopamine signal, Mean” value (Cocaine 20 mg/kg, Time 7) of the same compound?
Its value is 0.3431.

What about the “GRABDA dopamine signal, Mean” value (Cocaine 20 mg/kg, Time 8) of the same compound?
The value was 0.2873.

And the “GRABDA dopamine signal, Mean” value (Cocaine 20 mg/kg, Time 9)?
The value was 0.5323.

What about the “GRABDA dopamine signal, Mean” value (Cocaine 20 mg/kg, Time 10) of the same compound?
Its value is 0.4252.

What about the “GRABDA dopamine signal, Mean” value (Cocaine 20 mg/kg, Time 11) of the same compound?
The value was 0.3604.

What about the “GRABDA dopamine signal, Mean” value (Cocaine 20 mg/kg, Time 12) of the same compound?
The value was 0.1832.

And the “GRABDA dopamine signal, Mean” value (Cocaine 20 mg/kg, Time 13)?
The value was 0.2813.

And the “GRABDA dopamine signal, Mean” value (Cocaine 20 mg/kg, Time 14)?
The value was 0.2778.

What about the “GRABDA dopamine signal, Mean” value (Cocaine 20 mg/kg, Time 15) of the same compound?
The value was 0.4094.

And the “GRABDA dopamine signal, Mean” value (Cocaine 20 mg/kg, Time 16)?
Its value is 0.4918.

And the “GRABDA dopamine signal, Mean” value (Cocaine 20 mg/kg, Time 17)?
Its value is 0.3214.

What about the “GRABDA dopamine signal, Mean” value (Cocaine 20 mg/kg, Time 18) of the same compound?
Its value is 0.2818.

What about the “GRABDA dopamine signal, Mean” value (Cocaine 20 mg/kg, Time 19) of the same compound?
Its value is 0.2119.

And the “GRABDA dopamine signal, Mean” value (Cocaine 20 mg/kg, Time -1)?
The value was 0.05504.

What about the “GRABDA response versus saline” value (coca-5HT3 rats) of the same compound?
The value was “did not produce statistically significant increases”.

And the “GRABDA response versus saline” value (control rats)?
Its value is “significantly increased”.
